Here are results for 8 molecules from patent US11440880B2, “Thalidomide analogs and methods of use” (The USA, as represented by the Secretary, Department of …, priority 2015, dated 2022).

In data set [1] the test system is fli1:EGFP zebrafish embryos (intersegmental vessel growth). Briefly: fli1:EGFP zebrafish embryo angiogenesis assay. The class given is in vivo. The arrangement: fli1:EGFP angiogenesis n (survived/tested): concentration or dose not given beside the values. The note with it: for minimal effective concentration: Danio rerio, lowest concentration producing an effect, compounds not producing an effect shown at the highest evaluated concentration; for fli1:EGFP angiogenesis n (survived/tested): embryos alive after 24 hours of exposure. A digest of the protocol:
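fli1:EGFP embryos grown 24 hpf, dechorionated and exposed to compound or vehicle over a range of concentrations for up to 24 h, with CPS49 as positive control. Imaged at 48 hpf for intersegmental vessel formation and growth; survival after 24 h exposure recorded, and values reflect the lowest concentration producing an effect.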

The subject of data set [2] is mpo:GFP zebrafish embryos (neutrophil migration to the wound site). The data set is described as follows: mpo:GFP zebrafish fin-clip neutrophil migration (inflammation) assay. The class given is in vivo. The arrangement: mpo:GFP inflammation n (survived/tested): concentration or dose not given beside the values. Conditions: for minimal effective concentration: Danio rerio, Neutrophil, lowest concentration producing an effect, compounds not producing an effect shown at the highest evaluated concentration; for mpo:GFP inflammation n (survived/tested): embryos survived/tested at the concentration given. An excerpt: Zebrafish embryology: The use of zebrafish embryo (Danio rerio) bioassays as a preclinical model in the classification of novel compounds has increased in recent years due to several factors including; low cost, ease of maintenance, speed of embryonic development, transparency of the embryos and genetic conservation between zebrafish and humans (Howe et al., Nature 2013; 496:498; Therapontos et al., PNAS 2009, 106:8573; Mahony et al., PNAS 2013, 110:12703; Beedie et al., Oncotarget 2016, 7(22):33237; Beedie et al., Mol. Cancer Ther. 2015, 14(10):2228). Two established zebrafish reporter lines were used—the fli1:EGFP line, where the fli1 promoter drives expression of enhanced green fluorescent protein within the developing vasculature (Lawson et al., 2002), and the Tg(mpo::EGFP) line (also known as mpo:GFP), which expresses green fluorescent protein via the neutrophil specific myeloperoxidase promoter (Renshaw et al., Blood 2006, 108:3976). The use of these zebrafish transgenic reporter lines allows for the identification of potential anti-angiogenic and anti-inflammatory compounds respectively, and both have been used previously to successfully classify the action of thalidomide analogs (Therapontos et al., 2009; Mahony et al., 2013; Beedie et al., Oncotarget 2016, 7(22):33237; Beedie et al., Mol. Cancer Ther. 2015, 14(10):2228). Zebrafish embryos were treated with analogs as previously described (Mahony et al., 2013). Briefly, fli1:EGFP embryos were collected and embryos were allowed to develop for 24 hours. Embryos were dechorionated manually and exposed to test compounds or vehicle control for a further 24 hours, imaged and analyzed for intersegmental vessel (ISV) growth. At 24 hours post fertilisation (hpf) the ISVs were ideal to study to visualize and analyze the actions of compounds on angiogenesis. At this time point ISVs were rapidly forming beneath the developing head, over the body and had yet to form in the tail (Lawson and Weinstein, Developmental Biology 2002, 248:307; Therapontos and Vargesson, Developmental Dynamics 2010, 239:2761). Additionally, these sprouts would go on to form the bilateral dorsal longitudinal anastomotic vessels. By treating before this fusion and formation occurs, the effect of each compound on the individual vessels as well as overall patterning structural integrity (Isogai et al., Development 2003, 130:5281) could be determined. Tg(mpo::EGFP) were tail fin clipped as previously detailed (Renshaw et al., 2006; Mahony et al., 2013; Beedie et al., Oncotarget 2016, 7(22):33237; Beedie et al., Mol. Cancer Ther. 2015, 14(10):2228) and incubated with test compounds or vehicle control at 72 hours post fertilization. Fish were imaged at 24 hours and the number of migratory neutrophils present at the wound site were counted. Compounds inducing an at least 50% reduction of neutrophils to the wound site were considered to have anti-inflammatory properties in this system. All larvae were assessed for viability and morphological integrity.
To assess the immunomodulatory effects of the thalidomide analogs, the mpo:gfp transgenic zebrafish line (Renshaw et al., Blood 2006, 108:3976-3978) was utilized because it is an accepted model of inflammation, and can be used to test the effect of anti-inflammatory agents. These embryos express GFP-tagged myeloperoxidase, where green fluorescence marks the neutrophil cells involved in the inflammatory response process, for example following injury, from 72 hours post fertilization (Renshaw et al., 2006; Mahony et al., 2013; Beedie et al., Oncotarget 2016, 7(22):33237). At 72 hpf the dorsal third of the tail fin was removed and the embryos were immersed in the desired compound or vehicle (FIGS. 5A-5C). The embryos were examined for the effect on the inflammatory response quantified as an induction and migration of neutrophils to the wound site 24 hours later.

The subject of another data set is TNF-α protein. Briefly: TNF-α protein level (ELISA) in LPS-challenged RAW 264.7 cells. The arrangement: key: NS=not significant; a “+” sign=anti-inflammatory or increased cell numbers; a “−” sign=cell toxicity or pro-inflammatory. The note with it: LPS 30 or 60 ng/mL, 24 h. The data set is classed as cell-based, mouse. A digest of the protocol:
(§1)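 RAW 264.7 cells pretreated 1 h with compound in DMSO vehicle, then challenged with LPS (30 or 60 ng/mL) for 24 h at 37° C. Conditioned-media nitrite by Griess (520 nm, sodium nitrite standard curve, 1.5 μM cutoff) in μM; mouse TNF-α by ELISA as pg/ml or % change from control.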

The subject of data set [3] is nitrite levels in the culture media. Briefly: Nitrite level (Griess Reagent System) in LPS-challenged RAW 264.7 cells. Conditions: LPS 30 or 60 ng/mL, 24 h. The class given is cell-based, mouse. Further details: key: NS=not significant; a “+” sign=anti-inflammatory or increased cell numbers; a “−” sign=cell toxicity or pro-inflammatory. A digest of the protocol: as §1

For the next data set, the system named is RAW 264.7 cells. Briefly: Cell viability (CellTiter 96 AQueous One) of LPS-challenged RAW 264.7 cells. The class given is cell-based, mouse. Further details: key: NS=not significant; a “+” sign=anti-inflammatory or increased cell numbers; a “−” sign=cell toxicity or pro-inflammatory. A digest of the protocol: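 RAW 264.7 murine macrophages pretreated 1 h with compound or DMSO vehicle, then challenged with LPS (serotype 055:B5) at 30 or 60 ng/mL final for 24 h. After media replacement, viability measured by tetrazolium (MTS) conversion, absorbance at 490 nm, reported as O.D.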

A word on the minimal effective concentration: it is the lowest level tested that produced the effect sought. With `O=C1c2cccc([N+](=O)[O-])c2CN1c1nc2ccc(C(F)(F)F)cc2s1` [Compound 63], the minimal effective concentration in data set [1] was determined as 200 µg/mL; in data set [2] it was 100 µg/mL. For the same molecule, the “fli1:EGFP angiogenesis n (survived/tested)” value in data set [1] is 6/23. Also, in data set [2], the “mpo:GFP inflammation n (survived/tested)” value is on record as 12/20. The TNF-α result in the data set with TNF-α protein (1 μM), in the data set with TNF-α protein (10 μM) and in the data set on TNF-α protein (30 μM) was “NS” in each case. Further, the Nitrite entry in data set [3] (1 μM), in data set [3] (10 μM) and in data set [3] (30 μM) was “−” throughout. Further, the Viability entry in the data set with RAW 264.7 cells (1 μM) was “NS”; in the data set with RAW 264.7 cells (10 μM), “NS”; in the data set with RAW 264.7 cells (30 μM), “−”.

Regarding `CC1(C)S[C@@H]2[C@H](N3C(=O)c4ccccc4C3=O)C(=O)N2[C@H]1C(=O)O` [Compound 64], the minimal effective concentration in data set [1] and in data set [2] was 10 µg/mL in each case. Moreover, the “fli1:EGFP angiogenesis n (survived/tested)” value in data set [1] is given as 8/15. Also, the “mpo:GFP inflammation n (survived/tested)” value in data set [2] was 8/15. Moreover, the TNF-α entry in the data set with TNF-α protein (1 μM), in the data set with TNF-α protein (10 μM) and with TNF-α protein (30 μM) was “NS” in each case. Moreover, the Nitrite result in data set [3] (1 μM), in data set [3] (10 μM) and in data set [3] (30 μM) was “NS” each time. In addition, the Viability result in the data set with RAW 264.7 cells (1 μM), in the data set on RAW 264.7 cells (10 μM) and in the data set with RAW 264.7 cells (30 μM) was “NS” throughout.

As for `CC1(C)S[C@@H]2[C@H](N3Cc4ccccc4C3=O)C(=O)N2[C@H]1C(=O)O` [Compound 65, (1)-(2S,5R,6R)-3,3-Dimethyl-7-oxo-6-(1-oxo-1,3-dihydro-1H-isoindol-2-yl)-4-thia-1-azabicyclo[3.2.0]heptane-2-carboxylic acid], the minimal effective concentration in data set [1] and in data set [2] was 200 µg/mL in each case. Further, the “fli1:EGFP angiogenesis n (survived/tested)” value in data set [1] was 13/13. Also, the “mpo:GFP inflammation n (survived/tested)” value in data set [2] is 10/20. In addition, the TNF-α result in the data set on TNF-α protein (1 μM), in the data set with TNF-α protein (10 μM) and in the data set with TNF-α protein (30 μM) was “−” throughout. The Nitrite entry in data set [3] (1 μM), in data set [3] (10 μM) and in data set [3] (30 μM) was “NS” each time. Also, the Viability result in the data set on RAW 264.7 cells (1 μM), in the data set on RAW 264.7 cells (10 μM) and with RAW 264.7 cells (30 μM) was “NS” throughout.

For `FC(F)(F)c1ccc(/N=C2/c3ccccc3CN2c2ccc(C(F)(F)F)cn2)nc1` [Compound 66], the minimal effective concentration in data set [1] and in data set [2] was 100 µg/mL throughout. For the same molecule, the “fli1:EGFP angiogenesis n (survived/tested)” value in data set [1] is on record as 15/15. In data set [2], the “mpo:GFP inflammation n (survived/tested)” value is on record as 6/15. Further, the TNF-α result in the data set on TNF-α protein (1 μM) is recorded as “NS”; with TNF-α protein (10 μM), “NS”; with TNF-α protein (30 μM) it was “+”. Moreover, the Nitrite entry in data set [3] (1 μM) is “NS”; in data set [3] (10 μM) it was “NS”; in data set [3] (30 μM), “+”. The Viability entry in the data set with RAW 264.7 cells (1 μM) is “−”; in the data set with RAW 264.7 cells (10 μM), “NS”; in the data set on RAW 264.7 cells (30 μM) it was “−”.

Turning to `FC(F)(F)c1ccnc(/N=C2/c3ccccc3CN2c2cc(C(F)(F)F)ccn2)c1` [Compound 67, N-(4-Trifluoromethylpyridin-2-yl)-1-imino(4-trifluoromethylpyridin-2-yl)-isoindoline], the minimal effective concentration in data set [1] came to 10 µg/mL; in data set [2], 200 µg/mL. Besides, in data set [1], the “fli1:EGFP angiogenesis n (survived/tested)” value is listed as 13/22. For the same molecule, the “mpo:GFP inflammation n (survived/tested)” value in data set [2] is 6/15. Also, the TNF-α result with TNF-α protein (1 μM), in the data set on TNF-α protein (10 μM) and in the data set with TNF-α protein (30 μM) was “NS” throughout. In addition, the Nitrite result in data set [3] (1 μM) was “NS”; in data set [3] (10 μM), “NS”; in data set [3] (30 μM) it was “+”. For the same molecule, the Viability entry with RAW 264.7 cells (1 μM), in the data set with RAW 264.7 cells (10 μM) and in the data set with RAW 264.7 cells (30 μM) was “NS” throughout.

For the molecule `O=C1c2ccccc2CN1c1ccc(C(F)(F)F)cc1` [Compound 68], the minimal effective concentration stood at 10 µg/mL in data set [1] and 100 µg/mL in data set [2]. For the same molecule, the “fli1:EGFP angiogenesis n (survived/tested)” value in data set [1] was 22/34. Also, the “mpo:GFP inflammation n (survived/tested)” value in data set [2] is 5/15. Also, the TNF-α entry in the data set with TNF-α protein (1 μM), in the data set with TNF-α protein (10 μM) and in the data set with TNF-α protein (30 μM) was “NS” each time. Also, the Nitrite entry in data set [3] (1 μM), in data set [3] (10 μM) and in data set [3] (30 μM) was “NS” each time. Also, the Viability result in the data set with RAW 264.7 cells (1 μM), in the data set with RAW 264.7 cells (10 μM) and in the data set on RAW 264.7 cells (30 μM) was “NS” throughout.

Regarding `O=C1c2ccccc2CN1C12CC3CC(CC(C3)C1)C2` [Compound 69], the results for the minimal effective concentration in data set [1] and in data set [2] were 10 µg/mL and 200 µg/mL, respectively. In addition, in data set [1], the “fli1:EGFP angiogenesis n (survived/tested)” value is recorded as 6/14. The “mpo:GFP inflammation n (survived/tested)” value in data set [2] is on record as 8/17. The TNF-α entry with TNF-α protein (1 μM), in the data set with TNF-α protein (10 μM) and with TNF-α protein (30 μM) was “NS” in each case. Further, the Nitrite result in data set [3] (1 μM), in data set [3] (10 μM) and in data set [3] (30 μM) was “NS” throughout. Further, the Viability result in the data set on RAW 264.7 cells (1 μM), in the data set with RAW 264.7 cells (10 μM) and in the data set on RAW 264.7 cells (30 μM) was “NS” each time.

With `O=C1c2ccccc2CN1CC12CC3CC(CC(C3)C1)C2` [Compound 70], the minimal effective concentration was 10 µg/mL in data set [1] and 200 µg/mL in data set [2]. Also, the “fli1:EGFP angiogenesis n (survived/tested)” value in data set [1] is given as 8/10. In addition, in data set [2], the “mpo:GFP inflammation n (survived/tested)” value is on record as 10/15. The TNF-α entry is “NS” with TNF-α protein (1 μM), “+” in the data set with TNF-α protein (10 μM) and “+” in the data set on TNF-α protein (30 μM). The Nitrite result in data set [3] (1 μM) is recorded as “NS”; in data set [3] (10 μM), “NS”; in data set [3] (30 μM), “+”. Moreover, the Viability entry in the data set on RAW 264.7 cells (1 μM), in the data set on RAW 264.7 cells (10 μM) and in the data set on RAW 264.7 cells (30 μM) was “NS” each time.
